The record followed here is patent publication US20020137929A1, “1 - (3-heterocyclylphenyl) isothiourea, -isourea, -guanidine and -amidine herbicidal agents” (Intellectual Property Department, BASF Aktiengesellschaft, priority 1998, published 2002).

Assay [1] deals with TRZAWR (Wheat, Winter, cv Riband). Put plainly: Postemergence herbicidal evaluation. It counts as in vivo, Triticum aestivum. Conditions: postemergence. The procedure, abridged:
(§1)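 ~2-wk seedlings; postemergence spray, 40 psi; vehicle 1:1 acetone:water + 0.5% Tween 20; rate ≈0.0156–0.500 kg/ha; greenhouse hold; scored 4–5 wk after treatment, 0–9 scale vs control; repeat tests averaged.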

Assay [2] deals with CHEAL (Lambsquarters, Common). Put plainly: Preemergence herbicidal evaluation. To be noted: rated 4-5 weeks after treatment. It counts as in vivo, Chenopodium album. The gist of the method:
(§2)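 Rating at 4–5 wk post-spray on a 0–9 visual scale vs control. Application: aqueous acetone, ~0.0156–0.500 kg/ha, to soil surface after seeding, preemergence.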

For assay [3], the system named is CHEAL (Lambsquarters, Common). Put plainly: Postemergence herbicidal evaluation. To be noted: postemergence. It counts as in vivo, Chenopodium album. The procedure, abridged: as §1
In assay [4] the test system is ORYSAT (Rice, Tebonnet). Put plainly: Preemergence herbicidal evaluation. It counts as in vivo, Oryza sativa, (L.) Tebonnet. Conditions: rated 4-5 weeks after treatment. The gist of the method:
as §2

Assay [5] concerns CASOB (Sicklepod). Put plainly: Postemergence herbicidal evaluation. It counts as in vivo, Cassia obtusifolia. Conditions: postemergence. The gist of the method:
as §1

Where [6] appears, read: rate 0.1250 kg/ha, rating scale 0-9.
Setting [7] is: rate 0.2500 kg/ha, rating scale 0-9.
[8] abbreviates: rate 0.0156 kg/ha, rating scale 0-9.
[9] abbreviates: rate 0.0313 kg/ha, rating scale 0-9.
[10] abbreviates: rate 0.0625 kg/ha, rating scale 0-9.

For the molecule `COC(=O)CSCCN1C(=O)CSC1=Nc1cc(-n2c(=O)cc(C(F)(F)F)n(C)c2=O)c(F)cc1Cl` [Compound 158, Methyl {{2-{2-{{2-chloro-5-[3,6-dihydro-3-methyl-2,6-dioxo-4-(trifluoromethyl)-1(2H)-pyrimidinyl]-4-fluorophenyl}imino}-4-oxo-3-thiazolidinyl}ethyl}-thio}acetate], the “herbicidal rating TRZAWR” value stood at 3.5 in assay [1] (rate 0.0156 kg/ha), 4.0 in assay [1] (rate 0.0313 kg/ha) and 3.5 in assay [1] (rate 0.0625 kg/ha). Moreover, the “Preemergence herbicidal rating CHEAL” value in assay [2] (0.0156 kg/ha), in assay [2] (0.0313 kg/ha), in assay [2] (0.0625 kg/ha), in assay [2] (setting [6]) and in assay [2] (setting [7]) was 9.0 each time. Further, the “herbicidal rating CHEAL” value in assay [3] (rate 0.0156 kg/ha) is on record as 6.0; in assay [3] (rate 0.0313 kg/ha) it was 7.0; in assay [3] (rate 0.0625 kg/ha), 9.0. Moreover, the “Preemergence herbicidal rating ORYSAT” value in assay [4] (0.0156 kg/ha) came out at 3.0; in assay [4] (0.0313 kg/ha), 4.0; in assay [4] (0.0625 kg/ha), 7.0; in assay [4] (setting [6]) it was 7.0; in assay [4] (setting [7]) it was 8.0. Moreover, the “herbicidal rating CASOB” value in assay [5] (rate 0.0156 kg/ha) is recorded as 4.0; in assay [5] (rate 0.0313 kg/ha), 4.0; in assay [5] (rate 0.0625 kg/ha), 9.0.
In the case of `Cn1c(C(F)(F)F)cc(=O)n(-c2cc(N=C3SCC(=O)N3C3CCOC3=O)c(Cl)cc2F)c1=O` (stereo not drawn) [Compound 73], the TRZAWR herbicidal rating in assay [1] (rate 0.0158 kg/ha) came to 3.5; in assay [1] (rate 0.0315 kg/ha) it was 4.0; in assay [1] (rate 0.0630 kg/ha), 5.0. In addition, the “Preemergence herbicidal rating CHEAL” value in assay [2] (rate 0.0156 kg/ha), in assay [2] (rate 0.0313 kg/ha), in assay [2] (rate 0.0625 kg/ha), in assay [2] (rate 0.1250 kg/ha) and in assay [2] (rate 0.2500 kg/ha) was 9.0 each time. Moreover, the values for the CHEAL herbicidal rating in assay [3] (rate 0.0158 kg/ha), in assay [3] (rate 0.0315 kg/ha) and in assay [3] (rate 0.0630 kg/ha) were 4.0, 9.0 and 9.0, respectively. The “Preemergence herbicidal rating ORYSAT” value in assay [4] (rate 0.0156 kg/ha) turned out to be 0.0; in assay [4] (rate 0.0313 kg/ha), 0.0; in assay [4] (rate 0.0625 kg/ha), 2.0; in assay [4] (rate 0.1250 kg/ha), 2.0; in assay [4] (rate 0.2500 kg/ha), 4.0. Moreover, the CASOB herbicidal rating in assay [5] (rate 0.0158 kg/ha) was determined as 1.0; in assay [5] (rate 0.0315 kg/ha), 7.0; in assay [5] (rate 0.0630 kg/ha), 7.0.
Turning to `COC(=O)[C@H](Cc1ccc([N+](=O)[O-])cc1)N1C(=O)CSC1=Nc1cc(-n2c(=O)cc(C(F)(F)F)n(C)c2=O)c(F)cc1Cl` [Compound 78, Methyl 2-{{2-chloro-5-[3,6-dihydro-3-methyl-2,6-dioxo-4-(trifluoromethyl)-1(2H)-pyrimidinyl]-4-fluorophenyl}imino}-4-oxo-α-(p-nitrobenzyl)-3-thiazolidineacetate, L-], the TRZAWR herbicidal rating in assay [1] (rate 0.0158 kg/ha) stood at 3.0; in assay [1] (rate 0.0315 kg/ha) it was 3.5; in assay [1] (rate 0.0630 kg/ha), 3.5. The “Preemergence herbicidal rating CHEAL” value in assay [2] (rate 0.0156 kg/ha), in assay [2] (rate 0.0313 kg/ha), in assay [2] (rate 0.0625 kg/ha), in assay [2] (rate 0.1250 kg/ha) and in assay [2] (rate 0.2500 kg/ha) was 9.0 throughout. The CHEAL herbicidal rating in assay [3] (rate 0.0158 kg/ha), in assay [3] (rate 0.0315 kg/ha) and in assay [3] (rate 0.0630 kg/ha) was 9.0 in each case. The “Preemergence herbicidal rating ORYSAT” value in assay [4] (rate 0.0156 kg/ha), in assay [4] (rate 0.0313 kg/ha), in assay [4] (rate 0.0625 kg/ha), in assay [4] (rate 0.1250 kg/ha) and in assay [4] (rate 0.2500 kg/ha) was 0.0 each time. Besides, the CASOB herbicidal rating in assay [5] (rate 0.0158 kg/ha) was found to be 1.0; in assay [5] (rate 0.0315 kg/ha), 1.0; in assay [5] (rate 0.0630 kg/ha), 3.0.
`COC(=O)[C@H](Cc1ccccc1)N1C(=O)CS/C1=N/c1cc(-n2c(=O)cc(C(F)(F)F)n(C)c2=O)c(F)cc1Cl` [Compound 72, Methyl α-benzyl-2-{{2-chloro-5-[3,6-dihydro-3-methyl-2,6-dioxo-4-(trifluoromethyl)-1(2H)-pyrimidinyl]-4-fluorophenyl]imino}-4-oxo-3-thiazolidineacetate, L-]: the TRZAWR herbicidal rating in assay [1] (rate 0.0158 kg/ha) worked out at 3.5; in assay [1] (rate 0.0315 kg/ha), 4.0; in assay [1] (rate 0.0630 kg/ha), 4.5. For the same molecule, the “Preemergence herbicidal rating CHEAL” value in assay [2] (rate 0.0156 kg/ha), in assay [2] (rate 0.0313 kg/ha), in assay [2] (rate 0.0625 kg/ha), in assay [2] (rate 0.1250 kg/ha) and in assay [2] (rate 0.2500 kg/ha) was 9.0 throughout. Further, the CHEAL herbicidal rating in assay [3] (rate 0.0158 kg/ha) turned out to be 7.0; in assay [3] (rate 0.0315 kg/ha) it was 9.0. For the same molecule, the “Preemergence herbicidal rating ORYSAT” value in assay [4] (rate 0.0156 kg/ha) is reported as 0.0; in assay [4] (rate 0.0313 kg/ha) it was 0.0; in assay [4] (rate 0.0625 kg/ha), 0.0; in assay [4] (rate 0.1250 kg/ha), 1.0; in assay [4] (rate 0.2500 kg/ha), 1.0. In addition, the CASOB herbicidal rating in assay [5] (rate 0.0158 kg/ha) is 8.0; in assay [5] (rate 0.0315 kg/ha) it was 6.0; in assay [5] (rate 0.0630 kg/ha) it was 7.0.
In the case of `Cn1c(C(F)(F)F)cc(=O)n(-c2cc(N=C3SCC(=O)N3Cc3ccc(Cl)cc3)c(Cl)cc2F)c1=O` [Compound 145, 3-{4-Chloro-5-{[3-(p-chlorobenzyl)-4-oxo-2-thiazolidinylidene]amino}-2-fluorophenyl}-1-methyl-6-(trifluoromethyl)-2,4(1H,3H)-pyrimidinedione], the figures for the “herbicidal rating TRZAWR” value in assay [1] (rate 0.0156 kg/ha), in assay [1] (rate 0.0313 kg/ha) and in assay [1] (rate 0.0625 kg/ha) were 3.0, 3.0 and 4.0, respectively. Besides, the “Preemergence herbicidal rating CHEAL” value was 7.0 in assay [2] (setting [8]); 9.0 in assay [2] (setting [9]); 7.0 in assay [2] (setting [10]); 9.0 in assay [2] (setting [6]); 9.0 in assay [2] (setting [7]). For the same molecule, the “herbicidal rating CHEAL” value in assay [3] (rate 0.0156 kg/ha) is 5.0; in assay [3] (rate 0.0313 kg/ha) it was 9.0; in assay [3] (rate 0.0625 kg/ha), 9.0. The “Preemergence herbicidal rating ORYSAT” value in assay [4] (setting [8]) is listed as 1.0; in assay [4] (setting [9]), 1.0; in assay [4] (setting [10]), 2.0; in assay [4] (setting [6]) it was 3.0; in assay [4] (setting [7]), 1.0. Also, the “herbicidal rating CASOB” value in assay [5] (rate 0.0156 kg/ha) stood at 1.0; in assay [5] (rate 0.0313 kg/ha) it was 2.0; in assay [5] (rate 0.0625 kg/ha), 5.0.
As for `Cn1c(C(F)(F)F)cc(=O)n(-c2cc(N=C3SCC(=O)N3Cc3ccccc3Cl)c(Cl)cc2F)c1=O` [Compound 143], the “herbicidal rating TRZAWR” value is 1.5 in assay [1] (rate 0.0156 kg/ha), 2.0 in assay [1] (rate 0.0313 kg/ha) and 3.5 in assay [1] (rate 0.0625 kg/ha). In addition, the “Preemergence herbicidal rating CHEAL” value is on record as 7.0 in assay [2] (setting [9]), 7.0 in assay [2] (setting [10]), 9.0 in assay [2] (setting [6]) and 9.0 in assay [2] (setting [7]). The “herbicidal rating CHEAL” value is 2.0 in assay [3] (rate 0.0156 kg/ha), 6.0 in assay [3] (rate 0.0313 kg/ha) and 6.0 in assay [3] (rate 0.0625 kg/ha). The “Preemergence herbicidal rating ORYSAT” value in assay [4] (setting [9]) came to 0.0; in assay [4] (setting [10]), 0.0; in assay [4] (setting [6]), 0.0; in assay [4] (setting [7]), 1.0. Also, the “herbicidal rating CASOB” value in assay [5] (rate 0.0156 kg/ha) came to 0.0; in assay [5] (rate 0.0313 kg/ha) it was 1.0; in assay [5] (rate 0.0625 kg/ha), 3.0.
